Literature values as cited in patent US20100112105A1, “Antimicrobial efficacy of aframomum Melegueta extract against propionibacterium acnes” (ACCESS BUSINESS GROUP INTERNATIONAL LLC, priority 2008, published 2010).

Test system: Mycobacterium chelonei, M. intracellulare, M. smegmatis, and M. xenopi
Details: Galal, Pharmaceutical Biology 1996

Row | SMILES | activity against mycobacteria
1 | CCCCC/C=C/C(=O)CCc1ccc(O)c(OC)c1 [6-shogaol] | active
2 | COc1cc(CCC(C)=O)ccc1O [gingerone] | inactive
3 | CCCCCCCC(=O)CCc1ccc(O)c(OC)c1 [6-paradol] | active
